{"source": "paper PMC7988117", "about": "“OMN6 a novel bioengineered peptide for the treatment of multidrug resistant Gram negative bacteria” (Scientific Reports, 2021)", "key": {"Enterococcus faecium": {"test_system": "Enterococcus faecium", "conditions": "E. faecium ATCC BAA-2319 (MDR/Van-R); CLSI broth microdilution, Muller-Hinton broth, 18–24 h, 35 ± 2 °C", "method": "(§1) This experiment was conducted by Omnix Medical, by JMI Laboratories (North Liberty, IA, USA) and by Aptuit (Verona) S.r.l. (Italy), an Evotec Company. All studies were performed according to Clinical and Laboratory Standards Institute guidelines[30] for the application of the broth microdilution method. Reference strains from American Type Culture Collection (ATCC) and clinical isolates from the Evotec EvostrAIn and the JMI Laboratories SENTRY surveillance program culture collections (Acinetobacter baumannii: ACC 00445, ACC 00527, ACC 00535, ATCC 17978, ATCC 19606, ATCC BAA-1793, ACC 01076, ACC 01077, NCTC 13420, JMI #1088100 and JMI #1001007; Klebsiella pneumoniae: ATCC 43816 and ATCC BAA-1705; Escherichia coli: ACC 01001 and ATCC 25922; Staphylococcus aureus: ATCC 29213, ATCC BAA-44 and ATCC 33591; Bacillus cereus: ATCC 14579; Enterococcus faecalis: ATCC 29212; Enterococcus faecium: ATCC BAA-2319) were used. The antimicrobial activity of OMN6 was determined by 12 serial two-fold dilutions in water of the 100-fold highest compound solution; 1 µL of each well was transferred into 96 microtiter plates (final concentration: 256–0.12 µg/mL). In most strains, same procedure was used to determine the colistin antimicrobial activity (final concentration: 32–0.015 µg/mL). Bacterial strains were sub-cultured on the agar plates and incubated for 18–24 h at 35 ± 2 °C in ambient air. Following incubation, the inoculum was prepared from isolated colonies and adjusted to 0.5 McFarland turbidity standard (1 to 2 × 10^8 colony-forming units/mL) in 0.9% saline. Bacterial suspension was then diluted 1:200 in Muller-Hinton broth (from BD; Becton, Dickinson and Company, Franklin Lakes, NJ, USA) and within 15 min 100 µL/well were dispensed. Growth-control wells and sterility-check wells (uninoculated well) were present in each plate. Plates were incubated for 18–24 h at 35 ± 2 °C in ambient air. […] The antimicrobial activity to other antibiotics on most bacterial strains was determined by Evotec using the antimicrobial sensitive test from the VITEK 2 automated microbiology system (bioMérieux SA, Marcy l'Etoile, France; data presented in Table S1), or by ATCC according to CLSI (Clinical and Laboratory Standards Institute) guidelines[30]"}, "Escherichia coli": {"test_system": "Escherichia coli", "conditions": "CLSI broth microdilution, Muller-Hinton broth, 18–24 h, 35 ± 2 °C", "method": "as §1"}, "Gram-negative bacteria": {"test_system": "Gram-negative bacteria", "conditions": "summary of Table 1, regardless of resistance profile", "method": "as §1"}, "Staphylococcus aureus": {"test_system": "Staphylococcus aureus", "conditions": "CLSI broth microdilution, Muller-Hinton broth, 18–24 h, 35 ± 2 °C", "method": "as §1"}, "Enterococcus faecalis": {"test_system": "Enterococcus faecalis", "conditions": "E. faecalis ATCC 29212 (Van-S); CLSI broth microdilution, Muller-Hinton broth, 18–24 h, 35 ± 2 °C", "method": "as §1"}, "Acinetobacter baumannii": {"test_system": "Acinetobacter baumannii", "conditions": "for MIC: CLSI broth microdilution, Muller-Hinton broth, 18–24 h, 35 ± 2 °C", "method": "as §1"}, "Bacillus cereus": {"test_system": "Bacillus cereus", "conditions": "B. cereus ATCC 14579; CLSI broth microdilution, Muller-Hinton broth, 18–24 h, 35 ± 2 °C", "method": "as §1"}, "Klebsiella pneumoniae": {"test_system": "Klebsiella pneumoniae", "conditions": "CLSI broth microdilution, Muller-Hinton broth, 18–24 h, 35 ± 2 °C", "method": "as §1"}}, "note": "Read-outs that look alike come from different tables or passages of the source. Bridge positions count the residues as written; N and C are the ends. Peptide text beside a SMILES is read from it."}
{"smiles": "CC[C@H](C)[C@@H]1NC(=O)CNC(=O)[C@H](CC(=O)O)NC(=O)[C@H](CCCNC(=N)N)NC(=O)[C@H]([C@@H](C)CC)NC(=O)[C@H](CC(N)=O)NC(=O)[C@H](CCC(N)=O)NC(=O)CNC(=O)[C@H](C(C)C)NC(=O)[C@H](CCCCN)NC(=O)[C@H](CCC(=O)O)NC(=O)[C@H]([C@@H](C)CC)NC(=O)[C@H](CCCCN)NC(=O)[C@H](CCCCN)NC(=O)[C@H](Cc2ccccc2)NC(=O)[C@H](CC(C)C)NC(=O)[C@H](CCCCN)NC(=O)[C@H](Cc2c[nH]c3ccccc23)NC(=O)[C@H](CCCCN)NC(=O)[C@@H](NC(=O)[C@@H](N)CCSC)CSSC[C@@H](C(N)=O)NC(=O)[C@H](CCCCN)NC(=O)[C@H](C)NC(=O)[C@H]([C@@H](C)CC)NC(=O)[C@H](CCC(N)=O)NC(=O)[C@H]([C@@H](C)O)NC(=O)[C@H](C)NC(=O)[C@H](CCC(N)=O)NC(=O)CNC(=O)[C@H](C(C)C)NC(=O)[C@H](C(C)C)NC(=O)[C@H](C)NC(=O)[C@H](C(C)C)NC(=O)[C@H](C)NC(=O)[C@@H]2CCCN2C(=O)CNC(=O)[C@H](C)NC(=O)[C@H](CCCCN)NC(=O)[C@H]([C@@H](C)CC)NC1=O", "note": "[OMN6] (H-MCKWKLFKKIEKVGQNIRDGIIKAGPAVAVVGQATQIAKC-NH2; disulfide 2-40; N-terminus assumed)", "values": [{"measurement": "MIC", "setting": "Enterococcus faecium", "result": "> 256", "unit": "µg/mL"}, {"measurement": "MIC", "setting": "Escherichia coli; E. coli ACC 01001 (mcr-1)", "result": 32, "unit": "µg/mL"}, {"measurement": "MIC", "setting": "Escherichia coli; E. coli ATCC 25922 (S)", "result": 16, "unit": "µg/mL"}, {"measurement": "MIC on Gram-negative bacteria (all tested strains)", "setting": "Gram-negative bacteria", "result": "≤ 32", "unit": "µg/mL"}, {"measurement": "MIC", "setting": "Staphylococcus aureus; S. aureus ATCC 29213 (MSSA)", "result": "> 256", "unit": "µg/mL"}, {"measurement": "MIC", "setting": "Staphylococcus aureus; S. aureus ATCC 33591 (MRSA)", "result": "> 256", "unit": "µg/mL"}, {"measurement": "MIC", "setting": "Staphylococcus aureus; S. aureus ATCC BAA-44 (MDR/MRSA)", "result": "> 256", "unit": "µg/mL"}, {"measurement": "MIC", "setting": "Enterococcus faecalis", "result": "> 256", "unit": "µg/mL"}, {"measurement": "MIC", "setting": "Acinetobacter baumannii; A. baumannii ACC 00445 (MDR/Col-S)", "result": 4, "unit": "µg/mL"}, {"measurement": "MIC", "setting": "Acinetobacter baumannii; A. baumannii ACC 00527 (MDR/Col-R)", "result": 4, "unit": "µg/mL"}, {"measurement": "MIC", "setting": "Acinetobacter baumannii; A. baumannii ACC 00535 (MDR/Col-S)", "result": 4, "unit": "µg/mL"}, {"measurement": "MIC", "setting": "Acinetobacter baumannii; A. baumannii ACC 01076 (MDR/Col-R)", "result": 8, "unit": "µg/mL"}, {"measurement": "MIC", "setting": "Acinetobacter baumannii; A. baumannii ACC 01077 (MDR/Col-R)", "result": 4, "unit": "µg/mL"}, {"measurement": "MIC", "setting": "Acinetobacter baumannii; A. baumannii ATCC 17978 (S)", "result": 8, "unit": "µg/mL"}, {"measurement": "MIC", "setting": "Acinetobacter baumannii; A. baumannii ATCC 19606 (S)", "result": 8, "unit": "µg/mL"}, {"measurement": "MIC", "setting": "Acinetobacter baumannii; A. baumannii ATCC BAA-1793 (MDR)", "result": 8, "unit": "µg/mL"}, {"measurement": "MICs of the A. baumannii strains", "setting": "Acinetobacter baumannii; summary of Table 1, sensitive and multidrug resistant strains", "result": "4 to 8", "unit": "µg/mL"}, {"measurement": "MIC", "setting": "Bacillus cereus", "result": "> 256", "unit": "µg/mL"}, {"measurement": "MIC", "setting": "Klebsiella pneumoniae; K. pneumoniae ATCC 43816 (S)", "result": 16, "unit": "µg/mL"}, {"measurement": "MIC", "setting": "Klebsiella pneumoniae; K. pneumoniae ATCC BAA-1705 (MDR)", "result": 16, "unit": "µg/mL"}]}
